The numbers were not newly measured in patent US20190290635A1, “METHODS OF TREATING BRAIN CANCER USING AGENTS THAT ALTER ACTIVITY OF A METABOLIC PATHWAY” (Clear Creek Bio, Inc., priority 2018, published 2019), which cites them from elsewhere.

The conditions of series [1]: 43 patients; patient with papillary carcinoma of the thyroid; cited from earlier work.
The conditions of series [2]: 650 mg/m^2 brequinar (days 1, 8 and 15) with 75 mg/m^2 cisplatin (day 1); cited from earlier work.

With `Cc1c(-c2ccc(-c3ccccc3F)cc2)nc2ccc(F)cc2c1C(=O)O` [Brequinar sodium], in series [1], the tumor response observed entry was “One mixed response”. In the case of `Cc1c(-c2ccc(-c3ccccc3F)cc2)nc2ccc(F)cc2c1C(=O)O` [Brequinar, 6-fluoro-2-(2′-fluoro-1,1′ biphenyl-4-yl)-3-methyl-4-quinoline carboxylic acid], the “modification of individual drug pharmacokinetic parameters in combination with cisplatin” value in series [2] is given as “without significant modifications”.
